# Test system: proteins in HEK293T cells
# Assay: MS-based mapping of FFF probe-modified peptides (isoTOP, sites of labeling)
# Type: binding, human
# Summary of the method: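 Live cells treated with fragment probes (200-250 μM) in serum-free DMEM, with or without competitor ligands. Proteomes clicked to light/heavy biotin-TEV-azide, streptavidin-enriched, trypsin- then TEV-digested; probe-modified peptides identified by LC-MS/MS with any residue allowed as modified site, isoTOP ratios quantified by CIMAGE.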
smiles,measurement,setting,value
"C#CCCC1(CCC(=O)NC23CC4CC(CC(C4)C2)C3)N=N1 [probe 14, N-((3s,5s,7s)-Adamantan-1-yl)-3-(3-(but-3-yn-1-yl)-3H-diazirin-3-yl)propanamide]","Labeled Peptide of HLA-A HLAC class I histocompatibility antigen, A-2 alpha","Accession P01892, residues of probe-labeled peptide, family Uncategorized",46-59
same,Labeled Peptide of HMOX2 Heme oxygenase 2,"Accession P30519 (r933 prints P03519), residues of probe-labeled peptide, family Enzymes",69-87
same,Labeled Peptide of GHITM Growth hormone-inducible transmembrane protein,"Accession Q9H3K2, residues of probe-labeled peptide, family Uncategorized",218-240
same,Labeled Peptide of GOLPH3 Golgi phophoprotein 3,"Accession Q9H4A6, residues of probe-labeled peptide, family Adapter, Scaffolding, Modulator Proteins",75-90
same,Labeled Peptide of HAUS2 HAUS augmin-like complex subunit 2,"Accession Q9NVX0, residues of probe-labeled peptide, family Adapter, Scaffolding, Modulator Proteins",173-189
same,Labeled Peptide of FUBP1 Far upstream element-binding protein 1,"Accession Q96AE4, residues of probe-labeled peptide, family Transcription factors, Regulators",593-620
same,Labeled Peptide of HAUS1 HAUS augmin-like complex subunit 1,"Accession Q96CS2, residues of probe-labeled peptide, family Adapter, Scaffolding, Modulator Proteins",94-108
same,Labeled Peptide,"GOLPH3 Golgi phosphoprotein 3, residues of probe-modified peptide",75-90
same,Labeled Peptide,"HLA-A HLA class I histocompatibility antigen, A-2 alpha, residues of probe-modified peptide",46-59
same,Labeled Peptide,"HMOX2 Heme oxygenase 2, residues of probe-modified peptide",69-87
same,Labeled Peptide,"LIPA Lysosomal acid lipase (P38571), residues of the probe-labeled peptide",255-270
same,Labeled Peptide,"MAN2B1 Lysosomal alpha-mannosidase (O00754), residues of the probe-labeled peptide",291-305
same,Labeled Peptide,"MCFD2 (Q8NI22), residues of the probe-labeled peptide",103-126
same,Labeled Peptide,"MSH2 (P43246), residues of the probe-labeled peptide",848-871
same,Labeled Peptide,"MT-ND2 (P03891), residues of the probe-labeled peptide",264-272
same,Labeled Peptide,"NDUFS1 (P28331), residues of the probe-labeled peptide",312-325
same,Labeled Peptide,"NUP160 (Q12769), residues of the probe-labeled peptide",638-661
same,Labeled Peptide,"NUP205 (Q92621), residues of the probe-labeled peptide",1235-1252
same,Labeled Peptide,"NUP214 (P35658), residues of the probe-labeled peptide",770-783
same,Labeled Peptide,"NUTF2 (P61970), residues of the probe-labeled peptide",91-106
same,Labeled Peptide,"NXN Nucleoredoxin (Q6DKJ4), residues of the probe-labeled peptide",384-403
same,Labeled Peptide,P07384 CAPN1 Calpain-1 catalytic subunit,175-193
same,Labeled Peptide (residues) of YWHAQ 14-3-3 protein theta,"P27348, peptide TAFDEAIAELDTLNEDSYK, PDB 5IQP",194-212
same,Labeled Peptide,P30519 HMOX2 Heme oxygenase 2,69-87
same,Labeled Peptide,P30520 ADSS Adenylosuccinate synthetase isozyme 2,431-441
same,Labeled Peptide (residues) of PPP1CC Serine/threonine-protein phosphatase PP1-gamma cat,"P36873, peptide EIFLSQPILLELEAPLK, PDB 4UT2",44-60
same,Labeled Peptide,P48729 CSNK1A1 Casein kinase I isoform alpha,84-106
same,Labeled Peptide (residues) of RAB7A Ras-related protein Rab-7a,"P51149, peptide DEFLIQASPR, PDB 1YHN",104-113
same,Labeled Peptide,P67870 CSNK2B Casein kinase II subunit beta,112-134
same,Labeled Peptide,"PCNA (P12004), residues of the probe-labeled peptide",118-138
same,Labeled Peptide,"Q8NI60 ADCK3 Chaperone activity of bc1 complex-like, mitochondr",277-295
same,Labeled Peptide,Q9H4A6 GOLPH3 Golgi phosphoprotein 3,75-90
same,Labeled Peptide (residues) of RUVBL2 RuyB-like 2,"Q9Y230, peptide ALESDMAPVLIMATNR, PDB 3UK6",315-330
same,Labeled Peptide,Q13867 BLMH Bleomycin hydrolase,111-124
same,Labeled Peptide,"protein ADCK3 (Q8NI60), residues of probe-labeled peptide",277-295
same,Labeled Peptide,"protein ADCK3 Chaperone activity of bc1 complex-like, mitochondr, residues of probe-labeled peptide",277-295
same,Labeled Peptide,"protein ADSS (P30520), residues of probe-labeled peptide",431-441
same,Labeled Peptide,"protein ADSS Adenylosuccinate synthetase isozyme 2, residues of probe-labeled peptide",431-441
same,Labeled Peptide,"protein AGK (Q53H12), residues of probe-labeled peptide",283-304
same,Labeled Peptide,"protein ALDH18A1 (P54886), residues of probe-labeled peptide",650-662
same,Labeled Peptide,"protein ASNA1 (O43681), residues of probe-labeled peptide",131-153
same,Labeled Peptide,"protein ATP2A2 (P16615), residues of probe-labeled peptide",335-352
same,Labeled Peptide,"protein ATP2B1 (P20020), residues of probe-labeled peptide",824-840
same,Labeled Peptide,"protein ATP2B4 (P23634), residues of probe-labeled peptide",812-828
same,Labeled Peptide,"protein ATP5B (P06576), residues of probe-labeled peptide",407-422
same,Labeled Peptide,"protein ATP6V1B2 (P21281), residues of probe-labeled peptide",437-457
same,Labeled Peptide,"protein BLMH (Q13867), residues of probe-labeled peptide",111-124
same,Labeled Peptide,"protein BLMH Bleomycin hydrolase, residues of probe-labeled peptide",111-124
same,Labeled Peptide,"protein CALM3 Calmodulin (P62158), residues of probe-labeled peptide",39-75
same,Labeled Peptide,"protein CALM3 Calmodulin, residues of probe-labeled peptide",39-75
same,Labeled Peptide,"protein CAPN1 (P07384), residues of probe-labeled peptide",175-193
same,Labeled Peptide,"protein CAPN1 Calpain-1 catalytic subunit, residues of probe-labeled peptide",175-193
same,Labeled Peptide,"protein CCDCC51 (Q96ER9), residues of probe-labeled peptide",86-96
same,Labeled Peptide,"protein CLPB Caseinolytic peptidase B protein homolog (Q9H078), residues of probe-labeled peptide",630-650
same,Labeled Peptide,"protein COX15 Cytochrome coxidase assembly protein COX15 homolo (Q7KZN9), residues of probe-labeled peptide",296-313
same,Labeled Peptide,"protein CSNK1A1 Casein kinase I isoform alpha (P48729), residues of probe-labeled peptide",84-106
same,Labeled Peptide,"protein CSNK1A1 Casein kinase I isoform alpha, residues of probe-labeled peptide",84-106
same,Labeled Peptide,"protein CSNK2B Casein kinase II subunit beta (P67870), residues of probe-labeled peptide",112-134
same,Labeled Peptide,"protein CSNK2B Casein kinase II subunit beta, residues of probe-labeled peptide",112-134
same,Labeled Peptide,"protein DCAF7 DDB1- and CUL4-associated factor 7 (P61962), residues of probe-labeled peptide",82-96
same,Labeled Peptide,"protein FAH Fumarylacetoacetase (P16930), residues of probe-labeled peptide",242-253
same,Labeled Peptide,"protein FAM114A2 Protein FAM114A2 (Q9NRY5), residues of probe-labeled peptide",184-196
same,Labeled Peptide,protein O94826 TOMM70A Mitochondrial import receptor subunit TOM70,475-494
same,Labeled Peptide,protein O96008 TOMM40 Mitochondrial import receptor subunit TOM40 homolog,278-293
same,Labeled Peptide,protein P05387 RPLP2 60S acidic ribosomal protein P2,50-61
same,Labeled Peptide,protein P31948 STIP1 Stress-induced-phosphoprotein 1,416-429
same,Labeled Peptide,protein P46977 STT3A Dolichyl-diphosphooligosaccharide--protein glycosy,330-340
same,Labeled Peptide,"protein PABPC1 Polyadenylate-binding protein 1, residues of the probe-labeled peptide",114-129
same,Labeled Peptide,"protein PCNA Proliferating cell nuclear antigen, residues of the probe-labeled peptide",118-138
same,Labeled Peptide,protein PCYOX1 Prenylcysteine oxidase 1 (Q9UHG3),37-54
same,Labeled Peptide,protein PHB Prohibitin (P35232),241-253
same,Labeled Peptide,protein PLS3 Plastin-3 (P13797),72-85
same,Labeled Peptide,protein PPP1CB Serine/threonine-protein phosphate PP1-alpha cat (P62140),43-59
same,Labeled Peptide,"protein PPP1CC Serine/threonine-protein phosphatase PP1-gamma cat, residues of the probe-labeled peptide",44-60
same,Labeled Peptide,protein PPP1CC Serine/threonine-protein phosphate PP1-gamma cat (P36873),44-60
same,Labeled Peptide,protein PRPF19 Pre-mRNA-processing factor 19 (Q9UMS4),186-196
same,Labeled Peptide,protein PSMD3 26S proteasome non-ATPase regulatory subunit 3 (O43242),426-440
same,Labeled Peptide,protein PTBP1 Polypyrimidine tract-binding protein 1 (P26599),219-238
same,Labeled Peptide,protein Q8NBX0 SCCPDH Saccharopine dehydrogenase-like oxidoreductase,145-167
same,Labeled Peptide,protein Q8TBP6 SLC25A40 Solute carrier family 25 member 40,136-152
same,Labeled Peptide,protein Q8TCJ2 STT3B Dolichyl-diphosphooligosaccharide--protein glycosy,692-703
same,Labeled Peptide,protein Q9H2D1 SLC25A32 Mitochondrial folate transporter/carrier,118-145
same,Labeled Peptide,protein Q9H4I3 TRABD TraB domain-containing protein,235-253
same,Labeled Peptide,protein Q9H061 TMEM126A Transmembrane protein 126A,85-105
same,Labeled Peptide,protein Q9NS69 TOMM22 Mitochondrial import receptor subunit TOM22 homolog,106-117
same,Labeled Peptide,protein Q9UBX3 SLC25A10 Mitochondrial dicarboxylate carrier,171-186
same,Labeled Peptide,protein Q9Y230 RUVBL2 RuvB-like 2,315-330
same,Labeled Peptide,protein QIL1 Protein QIL1 (Q5XLP0),15-36
same,Labeled Peptide,protein RAB7A Ras-related protein Rab-7a (P51149),104-113
same,Labeled Peptide,"protein RAB7A Ras-related protein Rab-7a, residues of the probe-labeled peptide",104-113
same,Labeled Peptide,protein RABEPK Rab9 effector protein with kelch motifs (Q7Z6M1),87-100
same,Labeled Peptide,"protein RARS Arginine--tRNA ligase, cytoplasmic (P54136)",528-540
same,Labeled Peptide,"protein RARS Arginine--tRNA ligase, cytoplasmic, residues of the probe-labeled peptide",528-540
same,Labeled Peptide,"protein RUVBL2 RuvB-like 2, residues of the probe-modified peptide",315-330
same,Labeled Peptide,"protein TXNDC17 Thioredoxin domain-containing protein 17, residues of the probe-modified peptide",4-17
same,Labeled Peptide,"protein VPS33A Vacuolar protein sorting-associated protein 33A, residues of the probe-modified peptide",233-262
same,Labeled Peptide,"protein YWHAQ 14-3-3 protein theta, residues of the probe-modified peptide",194-212
same,Labeled Peptide,"residues of probe-labeled peptide on VDAC3 Voltage-dependent anion-slective channel protein, Accession # Q9Y277",164-174
same,Labeled Peptide,"residues of probe-labeled peptide on VMP1 Vacuole membrane protein 1, Accession # Q96GC9",214-243
same,Labeled Peptide,"residues of probe-labeled peptide on VPS33A Vacuolar protein sorting-associated protein 33A, Accession # Q96AX1",233-262
same,Labeled Peptide,"residues of probe-labeled peptide on VPS51 Vacuolar protein sorting-associated protein 51 hom, Accession # Q9UID3",742-763
same,Labeled Peptide,"residues of probe-labeled peptide on YWHAQ 14-3-3 protein theta, Accession # P27348",194-212
